Reference: the NIST ThermoML archive (doi:10.1016/j.fluid.2017.03.021)

Conditions: 101.33 kPa, Liquid, Vibrating tube method

CCCCCC[n+]1ccn(C)c1.O=S(=O)([N-]S(=O)(=O)C(F)(F)F)C(F)(F)F
Conditions	mass density [kg/m3]
293.15 K	1377.1
298.15 K	1372.5
303.15 K	1367.8
308.15 K	1363.5
313.15 K	1358.7
318.15 K	1354.3
323.15 K	1349.6
328.15 K	1345.2
333.15 K	1340.5
338.15 K	1336.2
343.15 K	1331.6
